{
  "source": "ChEMBL document CHEMBL2346568",
  "about": "“Discovery and structure-activity relationship of thienopyridine derivatives as bone anabolic agents” (Bioorg Med Chem, 2013)",
  "key": {"[1]": {"experiment": "Induction of osteoblastic differentiation in mouse ST2 cells assessed as increase in alkaline phosphatase activity after 4 days by lowry method", "type": "functional"}, "[2]": {"experiment": "Induction of osteoblastic differentiation in mouse ST2 cells assessed as increase in alkaline phosphatase activity at 0.30 ug/ml after 4 days by lowry method", "type": "functional"}, "[3]": {"experiment": "in vitro", "conditions": "rat, liver microsomes"}, "[4]": {"experiment": "Cmax in F344 rat at 25 mg/kg, po", "type": "ADME, organism-based", "parameters": "dose 25 mg/kg, route oral", "conditions": "in vivo"}, "[5]": {"experiment": "AUC in F344 rat at 25 mg/kg, po", "type": "ADME, organism-based", "parameters": "dose 25 mg/kg, route oral", "conditions": "plasma"}, "[6]": {"test_system": "Rattus norvegicus", "experiment": "Bone anabolic effect in ovariectomized F344 rat postmenopausal osteoporosis model assessed as increase in areal bone mineral density of femoral diaphyses at 60 mg/kg, po bid for 6 weeks by dual energy X-ray absorptiometry", "type": "functional, organism-based", "parameters": "dose 60 mg/kg"}, "[7]": {"test_system": "Rattus norvegicus", "experiment": "Bone anabolic effect in ovariectomized F344 rat postmenopausal osteoporosis model assessed as increase in areal bone mineral density of proximal tibiae at 60 mg/kg, po bid for 6 weeks by dual energy X-ray absorptiometry", "type": "functional, organism-based", "parameters": "dose 60 mg/kg"}, "[8]": {"experiment": "Oral bioavailability in F344 rat at 25 mg/kg", "type": "ADME, organism-based", "conditions": "in vivo"}, "[9]": {"experiment": "AUC in F344 rat at 2 mg/kg, iv", "type": "ADME, organism-based", "parameters": "dose 2 mg/kg, route intravenous", "conditions": "plasma"}, "[10]": {"test_system": "Rattus norvegicus", "experiment": "Volume of distribution in F344 rat at 25 mg/kg, po", "type": "ADME, organism-based", "parameters": "dose 25 mg/kg, route oral", "conditions": "in vivo"}, "[11]": {"test_system": "Rattus norvegicus", "experiment": "Bone anabolic effect in ovariectomized F344 rat postmenopausal osteoporosis model assessed as increase in serum osteocalcin level at 60 mg/kg, po bid for 6 weeks by ELISA", "type": "functional, organism-based", "parameters": "dose 60 mg/kg"}, "[12]": {"test_system": "Rattus norvegicus", "experiment": "Bone anabolic effect in ovariectomized F344 rat postmenopausal osteoporosis model assessed as increase in areal bone mineral density of distal femur at 60 mg/kg, po bid for 6 weeks by dual energy X-ray absorptiometry", "type": "functional, organism-based", "parameters": "dose 60 mg/kg"}, "[13]": {"experiment": "Volume of distribution in F344 rat at 2 mg/kg, iv", "type": "ADME, organism-based", "parameters": "dose 2 mg/kg, route intravenous", "conditions": "in vivo"}, "[14]": {"experiment": "Clearance in F344 rat at 2 mg/kg, iv", "conditions": "in vivo"}, "[15]": {"test_system": "Rattus norvegicus", "experiment": "Bone anabolic effect in ovariectomized F344 rat postmenopausal osteoporosis model assessed as increase in serum osteocalcin level at 10 to 30 mg/kg, po qd for 6 weeks by ELISA", "type": "functional, organism-based"}, "[16]": {"experiment": "Half life in F344 rat at 25 mg/kg, po", "conditions": "in vivo"}, "[17]": {"test_system": "Rattus norvegicus", "experiment": "Bone anabolic effect in ovariectomized F344 rat postmenopausal osteoporosis model assessed as increase in areal bone mineral density of proximal tibiae at 10 to 30 mg/kg, po qd for 6 weeks by dual energy X-ray absorptiometry", "type": "functional, organism-based"}, "[18]": {"experiment": "Clearance in F344 rat at 25 mg/kg, po", "conditions": "in vivo"}, "[19]": {"test_system": "Rattus norvegicus", "experiment": "Bone anabolic effect in ovariectomized F344 rat postmenopausal osteoporosis model assessed as increase in areal bone mineral density of distal femur at 10 to 30 mg/kg, po qd for 6 weeks by dual energy X-ray absorptiometry", "type": "functional, organism-based"}, "[20]": {"test_system": "Rattus norvegicus", "experiment": "Bone anabolic effect in ovariectomized F344 rat postmenopausal osteoporosis model assessed as increase in areal bone mineral density of femoral diaphyses at 10 to 30 mg/kg, po qd for 6 weeks by dual energy X-ray absorptiometry", "type": "functional, organism-based"}, "[21]": {"experiment": "Half life in F344 rat at 2 mg/kg, iv", "conditions": "in vivo"}},
  "note": "Calls of active or inactive are those of the source. No cut-off for these calls is given here.",
  "data": [
    {"smiles": "NC(=O)c1sc2nccc(NC3CCCCC3)c2c1N", "values": [
      {"measurement": "EC200", "setting": "[1]", "value": 0.24, "unit": "µg/mL"}
    ]},
    {"smiles": "NC(=O)c1ccc(N2CCCN(c3ccnc4sc(C(N)=O)c(N)c34)CC2)cc1", "values": [
      {"measurement": "EC200", "setting": "[1]", "value": 0.079, "unit": "µg/mL"}
    ]},
    {"smiles": "CCOC(=O)c1ccc(N2CCCN(c3ccnc4sc(C(N)=O)c(N)c34)CC2)cc1", "values": [
      {"measurement": "EC200", "setting": "[1]", "value": 0.193, "unit": "µg/mL"}
    ]},
    {"smiles": "CN1CCN(c2ccnc3sc(C(N)=O)c(N)c23)CC1", "values": [
      {"measurement": "Activity", "setting": "[2]", "value": 117, "unit": "%"}
    ]},
    {"smiles": "NC(=O)c1sc2nccc(N3CCOCC3)c2c1N", "values": [
      {"measurement": "remaining at 0.5 h", "setting": "[3]", "value": 82, "unit": "%"},
      {"measurement": "EC200", "setting": "[1]", "value": 0.44, "unit": "µg/mL"}
    ]},
    {"smiles": "CN(C)c1ccnc2sc(C(N)=O)c(N)c12", "values": [
      {"measurement": "Cmax", "setting": "[4]", "value": 5590, "unit": "ng/mL"},
      {"measurement": "AUC", "setting": "[5]", "value": 9400, "unit": "ng·h/mL"},
      {"measurement": "EC200", "setting": "[1]", "value": 0.17, "unit": "µg/mL"},
      {"measurement": "Activity", "setting": "[6]", "value": "Active"},
      {"measurement": "Activity", "setting": "[7]", "value": "Active"},
      {"measurement": "bioavailability", "setting": "[8]", "value": 87, "unit": "%"},
      {"measurement": "AUC", "setting": "[9]", "value": 870, "unit": "ng·h/mL"},
      {"measurement": "Vd", "setting": "[10]", "value": 3.1, "unit": "L/kg"},
      {"measurement": "Activity", "setting": "[11]", "value": "Active"},
      {"measurement": "Activity", "setting": "[12]", "value": "Active"},
      {"measurement": "Vd", "setting": "[13]", "value": 1.1, "unit": "L/kg"}
    ]},
    {"smiles": "NC(=O)c1sc2nccc(N3CCCN(c4ccccn4)CC3)c2c1N", "values": [
      {"measurement": "EC200", "setting": "[1]", "value": 0.059, "unit": "µg/mL"}
    ]},
    {"smiles": "CCCNc1ccnc2sc(C(N)=O)c(N)c12", "values": [
      {"measurement": "Activity", "setting": "[2]", "value": 134, "unit": "%"}
    ]},
    {"smiles": "NC(=O)c1sc2nccc(N3CCCN(c4ccc(F)cc4)CC3)c2c1N", "values": [
      {"measurement": "EC200", "setting": "[1]", "value": 0.082, "unit": "µg/mL"}
    ]},
    {"smiles": "NC(=O)c1sc2nccc(N3CCCC3)c2c1N", "values": [
      {"measurement": "EC200", "setting": "[1]", "value": 0.29, "unit": "µg/mL"}
    ]},
    {"smiles": "CN(C)C(=O)c1ccc(N2CCCN(c3ccnc4sc(C(N)=O)c(N)c34)CC2)cc1", "values": [
      {"measurement": "EC200", "setting": "[1]", "value": 0.014, "unit": "µg/mL"}
    ]},
    {"smiles": "CN(C)C(=O)Cc1ccc(N2CCCN(c3ccnc4sc(C(N)=O)c(N)c34)CC2)cc1", "values": [
      {"measurement": "EC200", "setting": "[1]", "value": 0.003, "unit": "µg/mL"}
    ]},
    {"smiles": "NC(=O)c1sc2nccc(N3CCNCC3)c2c1N", "values": [
      {"measurement": "Activity", "setting": "[2]", "value": 105, "unit": "%"}
    ]},
    {"smiles": "CNC(=O)c1ccc(N2CCCN(c3ccnc4sc(C(N)=O)c(N)c34)CC2)cc1", "values": [
      {"measurement": "EC200", "setting": "[1]", "value": 0.023, "unit": "µg/mL"}
    ]},
    {"smiles": "Cc1cccc(N2CCCN(c3ccnc4sc(C(N)=O)c(N)c34)CC2)c1", "values": [
      {"measurement": "EC200", "setting": "[1]", "value": 0.074, "unit": "µg/mL"}
    ]},
    {"smiles": "NC(=O)c1sc2nccc(N3CCCN(c4ccncc4)CC3)c2c1N", "values": [
      {"measurement": "EC200", "setting": "[1]", "value": 0.091, "unit": "µg/mL"}
    ]},
    {"smiles": "CC(C)Oc1ccc(N2CCCN(c3ccnc4sc(C(N)=O)c(N)c34)CC2)cc1", "values": [
      {"measurement": "EC200", "setting": "[1]", "value": ">1", "unit": "µg/mL"}
    ]},
    {"smiles": "NC(=O)c1sc2nccc(N3CCCN(c4ccccc4)CC3)c2c1N", "values": [
      {"measurement": "Cmax", "setting": "[4]", "value": 2540, "unit": "ng/mL"},
      {"measurement": "clearance", "setting": "[14]", "value": 29, "unit": "mL/min/kg"},
      {"measurement": "Activity", "setting": "[15]", "value": "Active"},
      {"measurement": "remaining at 0.5 h", "setting": "[3]", "value": 71, "unit": "%"},
      {"measurement": "half-life", "setting": "[16]", "value": 3.22, "unit": "h"},
      {"measurement": "AUC", "setting": "[5]", "value": 9500, "unit": "ng·h/mL"},
      {"measurement": "EC200", "setting": "[1]", "value": 0.051, "unit": "µg/mL"},
      {"measurement": "bioavailability", "setting": "[8]", "value": 71, "unit": "%"},
      {"measurement": "AUC", "setting": "[9]", "value": 1100, "unit": "ng·h/mL"},
      {"measurement": "Activity", "setting": "[17]", "value": "Active"},
      {"measurement": "CL/F", "setting": "[18]", "value": 34, "unit": "mL/min/kg"},
      {"measurement": "Activity", "setting": "[19]", "value": "Active"},
      {"measurement": "Vd", "setting": "[10]", "value": 8.1, "unit": "L/kg"},
      {"measurement": "Activity", "setting": "[20]", "value": "Active"},
      {"measurement": "half-life", "setting": "[21]", "value": 2.77, "unit": "h"},
      {"measurement": "Vd", "setting": "[13]", "value": 4.2, "unit": "L/kg"}
    ]},
    {"smiles": "COc1ccc(N2CCCN(c3ccnc4sc(C(N)=O)c(N)c34)CC2)cc1", "values": [
      {"measurement": "EC200", "setting": "[1]", "value": 0.035, "unit": "µg/mL"}
    ]},
    {"smiles": "CCCN(CCC)c1ccnc2sc(C(N)=O)c(N)c12", "values": [
      {"measurement": "Activity", "setting": "[2]", "value": 110, "unit": "%"}
    ]},
    {"smiles": "NC(=O)c1sc2nccc(N3CCCN(c4ccc(C(=O)O)cc4)CC3)c2c1N", "values": [
      {"measurement": "EC200", "setting": "[1]", "value": ">1", "unit": "µg/mL"}
    ]},
    {"smiles": "Cc1ccc(N2CCCN(c3ccnc4sc(C(N)=O)c(N)c34)CC2)cc1", "values": [
      {"measurement": "EC200", "setting": "[1]", "value": 0.044, "unit": "µg/mL"}
    ]},
    {"smiles": "NC(=O)c1sc2nccc(N3CCN(c4ccccc4)CC3)c2c1N", "values": [
      {"measurement": "remaining at 0.5 h", "setting": "[3]", "value": 91, "unit": "%"},
      {"measurement": "EC200", "setting": "[1]", "value": 0.1, "unit": "µg/mL"}
    ]},
    {"smiles": "CC(C)(C)c1ccc(N2CCCN(c3ccnc4sc(C(N)=O)c(N)c34)CC2)cc1", "values": [
      {"measurement": "EC200", "setting": "[1]", "value": 0.27, "unit": "µg/mL"}
    ]},
    {"smiles": "NC(=O)c1sc2nccc(N3CCCCC3)c2c1N", "values": [
      {"measurement": "remaining at 0.5 h", "setting": "[3]", "value": 2, "unit": "%"},
      {"measurement": "EC200", "setting": "[1]", "value": 0.067, "unit": "µg/mL"}
    ]},
    {"smiles": "NC(=O)c1sc2nccc(N3CCCN(c4nccs4)CC3)c2c1N", "values": [
      {"measurement": "EC200", "setting": "[1]", "value": 0.036, "unit": "µg/mL"}
    ]},
    {"smiles": "Cc1ccccc1N1CCCN(c2ccnc3sc(C(N)=O)c(N)c23)CC1", "values": [
      {"measurement": "EC200", "setting": "[1]", "value": ">1", "unit": "µg/mL"}
    ]},
    {"smiles": "N#Cc1ccc(N2CCCN(c3ccnc4sc(C(N)=O)c(N)c34)CC2)cc1", "values": [
      {"measurement": "EC200", "setting": "[1]", "value": 0.099, "unit": "µg/mL"}
    ]}
  ]
}
